The subject of assay [1] is lesions induced by compound 48/80. In words: gastric lesion test: lesions induced by compound 48/80. It counts as in vivo, rats. As to conditions: Rattus norvegicus.
The subject of assay [2] is apomorphine-induced emesis. Kind of assay: apomorphine test in dogs (APO-dog): protection from emesis. It counts as in vivo, beagle dogs. As to conditions: Canis lupus familiaris, sc, apomorphine 0.31 mg/kg s.c. 1 hour after compound, dose protecting 50% from emesis. From the text:
2. The apomorphine test in dogs (APO-dog). The method used is described by P. A. J. Janssen and C. J. E. Niemegeers in Arzneim.-Forsch.

The test system of assay [3] is tryptamine-induced bilateral tonic seizures. Kind of assay: combined test in rats: tryptamine (TRY)-induced bilateral tonic seizures. It counts as in vivo, adult male Wistar rats. As to conditions: sc, 1.5 h; s.c.; rat; tryptamine 40 mg/kg i.v. at 90 minutes; dose protecting 50% of animals; read-out: ED0 (TRY)-rat.
Assay [4] concerns apomorphine-induced phenomena: agitation and stereotypic chewing. Kind of assay: combined test in rats: apomorphine (APO)-induced agitation and stereotypic chewing. As to conditions: sc, 0.5 h; s.c.; rat; apomorphine hydrochloride 1.25 mg/kg i.v. 30 minutes after compound; dose protecting 50% of animals. It counts as in vivo, adult male Wistar rats.
Assay [5] concerns lesions induced by compound 48/80. As to conditions: rats, known serotonin antagonists; cited from earlier work.

`O=c1[nH]c2ccccc2n1CCCN1CCC(CC(O)c2ccc(F)cc2)CC1` (stereo not shown): the ED50 was determined as 0.08 mg/kg in assay [1] and 0.5 mg/kg in assay [2].
For the compound `CC(CCn1c(=O)[nH]c2ccccc21)N1CCC(CC(=O)c2ccc(F)cc2)CC1` (stereo not shown) [H, H, H, [drawing 21], CO, 4-FC6 H4, base, 1-[3-[4-[2-(4-fluorophenyl)-2-oxoethyl]-1-piperidinyl]butyl]-1,3-dihydro-2H-benzimidazol-2-one], the ED50 in assay [1] is 1.25 mg/kg; in assay [3], 5 mg/kg.
In the case of `O=C(CC1CCN(CCn2c(=O)[nH]c3ccc(Cl)cc32)CC1)c1ccc(F)cc1` [6-Cl, H, H, (CH2)2, CO, 4-FC6 H4, base], the ED50 was 2.5 mg/kg in assay [4], 0.63 mg/kg in assay [1], 0.5 mg/kg in assay [2] and 1.25 mg/kg in assay [3].
In the case of `O=C(CC1CCN(CCn2c(=O)[nH]c3ccccc32)CC1)c1ccccc1` [H, H, H, (CH2)2, CO, C6 H5, base], the ED50 turned out to be 0.63 mg/kg in assay [4], 0.31 mg/kg in assay [1], 0.25 mg/kg in assay [2] and 2.5 mg/kg in assay [3].
On the same counts, the results for `O=C(CC1CCN(CCn2c(=O)[nH]c3ccccc32)CC1)c1ccc(Cl)cc1` [H, H, H, (CH2)2, CO, 4-ClC6 H4, base] are 0.63 mg/kg, 0.16 mg/kg, 0.5 mg/kg and 2.5 mg/kg.
In the case of `Cc1ccc2c(c1)[nH]c(=O)n2CCN1CCC(CC(=O)c2ccc(F)cc2)CC1` [5-CH3, H, H, (CH2)2, CO, 4-FC6 H4, base], the ED50 in assay [1] stood at 0.63 mg/kg; in assay [2], 0.08 mg/kg; in assay [3], 0.63 mg/kg.
In the case of `O=C(CC1CCN(CCn2c(=O)[nH]c3cc(Cl)ccc32)CC1)c1ccc(F)cc1` [5-Cl, H, H, (CH2)2, CO, 4-FC6 H4, base], the ED50 stood at 2.5 mg/kg in assay [4], 0.63 mg/kg in assay [1], 0.12 mg/kg in assay [2] and 5 mg/kg in assay [3].
With `Cc1ccc(C(=O)CC2CCN(CCn3c(=O)[nH]c4ccccc43)CC2)cc1` [H, H, H, (CH2)2, CO, 4-CH3C6 H4, base], the ED50 in assay [1] was determined as 0.63 mg/kg; in assay [2] it was 0.5 mg/kg; in assay [3], 2.5 mg/kg.
Consider `O=C(CC1CCN(CCn2c(=O)[nH]c3cc(F)ccc32)CC1)c1ccc(F)cc1` [5-F, H, H, (CH2)2, CO, 4-FC6 H4, base], for which the ED50 in assay [4] was determined as 0.16 mg/kg; in assay [1], 0.31 mg/kg; in assay [3], 0.63 mg/kg.
`O=C(CC1CCN(CCn2c(=O)[nH]c3ccccc32)CC1)c1ccc(F)cc1` [H, H, H, (CH2)2, CO, 4-FC6 H4, base, 1-[2-[4-[2-(4-fluorophenyl)-2-oxoethyl]-1-piperidinyl]ethyl]-1,3-dihydro-2H-benzimidazol-2-one]: the ED50 is 0.31 mg/kg in assay [4], 0.01 mg/kg in assay [1], 0.03 mg/kg in assay [2] and 0.31 mg/kg in assay [3].
With `NC(=O)C1(N2CCCCC2)CCN(CCCC(=O)c2ccc(F)cc2)CC1` [pipamperone], in assay [5], the “prevention of cyanosis of ears and extremities” value is reported as “prevent completely”; the “prevention of lesions in the glandular area of the stomach and abnormal gastric distension” value (shortened to “prevention of lesions”) was “prevent completely”.
`CC(=O)n1c(=O)n(CCN2CCC(CC(=O)c3ccc(F)cc3)CC2)c2ccccc21` [H, H, CH3 CO, (CH2)2, CO, 4-FC6 H4, base, 1-acetyl-3-[2-[4-[2-(4-fluorophenyl)-2-oxoethyl]-1-piperidinyl]ethyl]-1,3-dihydro-2H-benzimidazol-2-one]: the ED50 in assay [4] was 1.25 mg/kg; in assay [1], 0.08 mg/kg; in assay [2] it was 1 mg/kg; in assay [3] it was 1.25 mg/kg.
On to `O=C(CCCN1CCC2(CC1)C(=O)NCN2c1ccccc1)c1ccc(F)cc1` [spiperone], for which, in assay [5], the “prevention of cyanosis of ears and extremities” value is given as “prevent completely”; the “prevention of lesions” value is recorded as “prevent completely”.
In the case of `CN(C)CCCSc1ccccc1NC(=O)/C=C/c1ccccc1` [cinanserin], in assay [5], the “prevention of cyanosis of ears and extremities” value is recorded as “prevent completely”; the “prevention of lesions” value is “prevent completely”.
For `CC[C@@H](CO)NC(=O)[C@@H]1C=C2c3cccc4c3c(cn4C)C[C@H]2N(C)C1` [methysergide], in assay [5], the “prevention of cyanosis of ears and extremities” value was “prevent completely”; the “prevention of lesions” value was “prevent completely”.
With `Cn1c(=O)n(CCN2CCC(CC(=O)c3ccc(F)cc3)CC2)c2ccccc21` [H, H, CH3, (CH2)2, CO, 4-FC6 H4, base], the ED50 in assay [4] was determined as 0.63 mg/kg; in assay [1], 0.31 mg/kg; in assay [2] it was 0.63 mg/kg; in assay [3], 0.63 mg/kg.
In the case of `Cn1c(=O)n(CCCN2CCC(CC(=O)c3ccc(F)cc3)CC2)c2ccccc21` [H, H, CH3, (CH2)3, CO, 4-FC6 H4, base], the results for the ED50 in assay [1] and in assay [3] were 0.31 mg/kg and 1.25 mg/kg, respectively.
In the case of `CN1CCC(=C2c3ccccc3C=Cc3ccccc32)CC1` [cyproheptadine], in assay [5], the “prevention of cyanosis of ears and extremities” value is “prevent completely”; the “prevention of lesions” value was “prevent completely”.
Consider `O=C(CC1CCN(CCCn2c(=O)[nH]c3ccccc32)CC1)c1ccc(F)cc1` [H, H, H, (CH2)3, CO, 4-FC6 H4, base, 1-[3-[4-[2-(4-fluorophenyl)-2-oxoethyl]-1-piperidinyl]propyl]-1,3-dihydro-2H-benzimidazol-2-one], for which the figures for the ED50 in assay [1] and in assay [3] were 0.08 mg/kg and 1.25 mg/kg, respectively.
With `CN1C[C@H](CNC(=O)OCc2ccccc2)C[C@@H]2c3cccc4c3c(cn4C)C[C@H]21` [metergoline], in assay [5], the “prevention of cyanosis of ears and extremities” value is on record as “prevent completely”; the “prevention of lesions” value is listed as “prevent completely”.
For the compound `CN1CCC(=C2c3ccccc3CCc3sccc32)CC1` [pizotifen], in assay [5], the “prevention of cyanosis of ears and extremities” value is recorded as “prevent completely”; the “prevention of lesions” value was “prevent completely”.
Regarding `CN1CCN2c3ccccc3Cc3ccccc3C2C1` (stereo not shown) [mianserin], in assay [5], the “prevention of cyanosis of ears and extremities” value is given as “prevent completely”; the “prevention of lesions” value is “prevent completely”.
